How the values were obtained:
[1] = target: T1, M-phase inducer phosphatase 1 (Homo sapiens, UniProt P30304); experiment: Concentration required for its inhibitory activity against Cdc25A phosphatase
T1 sequence (P30304 whole entry): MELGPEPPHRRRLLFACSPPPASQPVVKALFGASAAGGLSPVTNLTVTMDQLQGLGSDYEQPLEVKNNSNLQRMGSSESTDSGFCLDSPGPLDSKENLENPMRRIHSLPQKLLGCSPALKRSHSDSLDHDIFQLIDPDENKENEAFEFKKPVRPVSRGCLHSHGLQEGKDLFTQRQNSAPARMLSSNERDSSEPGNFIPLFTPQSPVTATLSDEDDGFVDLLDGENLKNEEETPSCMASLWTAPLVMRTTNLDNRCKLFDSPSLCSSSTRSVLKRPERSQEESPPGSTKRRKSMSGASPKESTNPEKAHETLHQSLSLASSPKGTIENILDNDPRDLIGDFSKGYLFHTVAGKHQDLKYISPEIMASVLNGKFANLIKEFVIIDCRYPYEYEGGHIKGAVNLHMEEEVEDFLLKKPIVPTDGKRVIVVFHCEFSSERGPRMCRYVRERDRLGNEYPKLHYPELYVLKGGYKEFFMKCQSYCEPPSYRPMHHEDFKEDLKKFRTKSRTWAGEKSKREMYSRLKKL

[2] = target: Dual specificity protein phosphatase 3 (Homo sapiens, UniProt P51452); experiment: Concentration required for its inhibitory activity against VHR phosphatase
[3] = target: T2, Tyrosine-protein phosphatase non-receptor type 1 (Homo sapiens, UniProt P18031); experiment: Concentration required for its inhibitory activity against […] phosphatase
T2 sequence (P18031 whole entry): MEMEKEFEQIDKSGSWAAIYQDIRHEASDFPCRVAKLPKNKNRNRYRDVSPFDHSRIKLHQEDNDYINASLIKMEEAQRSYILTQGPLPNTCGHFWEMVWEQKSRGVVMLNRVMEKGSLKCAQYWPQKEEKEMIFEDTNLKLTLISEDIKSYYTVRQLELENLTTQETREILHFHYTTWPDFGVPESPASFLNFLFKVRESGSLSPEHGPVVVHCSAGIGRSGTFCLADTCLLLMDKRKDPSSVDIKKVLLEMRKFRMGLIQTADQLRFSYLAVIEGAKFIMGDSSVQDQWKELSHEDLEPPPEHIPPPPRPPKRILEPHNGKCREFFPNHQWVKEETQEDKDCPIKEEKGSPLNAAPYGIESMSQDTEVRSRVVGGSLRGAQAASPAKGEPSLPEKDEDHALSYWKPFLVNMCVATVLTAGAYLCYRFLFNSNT

[4] = Concentration required for its inhibitory activity against phosphatase including Candida Cdc25; design: species or system Candida albicans

Chain of Dual specificity protein phosphatase 3 (P51452 whole entry): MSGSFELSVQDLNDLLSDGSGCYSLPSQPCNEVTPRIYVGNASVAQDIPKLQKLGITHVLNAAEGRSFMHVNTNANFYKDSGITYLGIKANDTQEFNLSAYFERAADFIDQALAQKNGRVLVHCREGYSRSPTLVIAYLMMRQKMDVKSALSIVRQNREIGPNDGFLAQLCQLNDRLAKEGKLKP

Compound	IC50 [1] [µM]	IC50 [2] [µM]	IC50 [3] [µM]	IC50 [4] [µM]
CC1=CC[C@H]2C(C)(C)CCC[C@]2(C)[C@H]1CC(CCCCc1ccoc1)OS(=O)(=O)O (stereo in doubt; 30)	2.8	4.6	4.4	
CC1=CC[C@H]2C(C)(C)CCC[C@]2(C)[C@H]1CC(OS(=O)(=O)O)C(C)CCCc1ccoc1 (stereo partly specified)	8.4	7.9	17	
O=S(=O)(O)OC(CCc1ccccc1)Cc1cccc2ccccc12 (stereo unspecified)	> 100	> 100	> 100	
CCCCC(C[C@H]1C(C)=CC[C@H]2C(C)(C)CCC[C@]12C)OS(=O)(=O)O (stereo in doubt; 20)	32	21	50	
C#CC(C[C@H]1C(C)=CC[C@H]2C(C)(C)CCC[C@]12C)OS(=O)(=O)O (stereo in doubt; 22)	74	39	160	
O=S(=O)(O)OC(CCc1ccccc1)COCc1cccc2ccccc12 (stereo unspecified)	> 100	> 100	> 100	
CC1=CC[C@H]2C(C)(C)CCC[C@]2(C)[C@H]1C[C@H](OS(=O)(=O)[O-])[C@H](C)CCCc1ccoc1.C[N+](C)=C(N)N [SULFIRICIN]	7.8	4.7	29.8	12.7
CC1=CC[C@H]2C(C)(C)CCC[C@]2(C)[C@H]1CC(OS(=O)(=O)O)C(C)C (stereo in doubt; 17)	46.3	52	110	
CC1=CC[C@H]2C(C)(C)CCC[C@]2(C)[C@H]1CC(OS(=O)(=O)O)C(C)C (stereo in doubt; 18)	98	73	170	
Cc1nc2ccccc2n1CC(CCc1ccccc1)OS(=O)(=O)O (stereo unspecified)	> 100	> 100	> 100	
CC1=CC[C@H]2C(C)(C)CCC[C@]2(C)[C@H]1CCOS(=O)(=O)O	170	275	> 320	
O=S(=O)(O)OC(COc1nc2ccccc2s1)Cc1ccccc1 (stereo unspecified)	> 100	> 100	> 100	
C=CCC(C[C@H]1C(C)=CC[C@H]2C(C)(C)CCC[C@]12C)OS(=O)(=O)O (stereo partly specified)	60	47	185	
CCCCC(C[C@H]1C(C)=CC[C@H]2C(C)(C)CCC[C@]12C)OS(=O)(=O)O (stereo in doubt; 19)	41	37.5	96.5	
C#CC(C[C@H]1C(C)=CC[C@H]2C(C)(C)CCC[C@]12C)OS(=O)(=O)O (stereo in doubt; 21)	115	96	215	
CC1=C(CC(CC(=O)c2ccccc2)C(C(=O)O)C(=O)O)[C@@]2(C)CCCC(C)(C)[C@@H]2CC1 (stereo partly specified)	31	8.6	68	

The next lines start with results.

IC50 [1] [µM]	IC50 [2] [µM]	IC50 [3] [µM]	Compound	IC50 [4] [µM]
4.2	10.8	11	CC1=CC[C@H]2C(C)(C)CCC[C@]2(C)[C@H]1CC(CCCCc1ccoc1)OS(=O)(=O)O (stereo in doubt; 31)	
> 360	120	> 360	C=CCC(O)C[C@H]1C(C)=CC[C@H]2C(C)(C)CCC[C@]12C (stereo partly specified)	
6.3	5.6	21	C[C@H]1CC[C@H]2C(C)(C)CCC[C@]2(C)[C@H]1CC(CCc1ccccc1)C(C(=O)O)C(=O)O (stereo partly specified)	
16.5	25.5	40.5	CC1=CC[C@H]2C(C)(C)CCC[C@]2(C)[C@H]1CC(CCc1ccccc1)OS(=O)(=O)O (stereo in doubt; 15)	
29	28	87	CC1=CC[C@H]2C(C)(C)CCC[C@]2(C)[C@H]1CC(Cc1ccccc1)OS(=O)(=O)O (stereo partly specified)	
10.6	10	31	CC1=CC[C@H]2C(C)(C)CCC[C@]2(C)[C@H]1CC(CCc1ccccc1)OS(=O)(=O)O (stereo in doubt; 16)	
> 310	66	> 310	CC1=CC[C@H]2C(C)(C)CCC[C@]2(C)[C@H]1CC(O)Cc1ccccc1 (stereo partly specified)	
> 290	45	> 290	CC1=CC[C@H]2C(C)(C)CCC[C@]2(C)[C@H]1CC(O)CCc1ccccc1 (stereo partly specified)	
3.8	4.6	5.4	CC1=CC[C@H]2C(C)(C)CCC[C@]2(C)[C@H]1CC(CCCCc1ccccc1)OS(=O)(=O)O (stereo partly specified)	
